This passage reports EC50 and IC50 results from patent US10344025B2, “GLS1 inhibitors for treating disease” (Board of Regents, The University of Texas System, priority 2014, dated 2019).

One may read the EC50 as the concentration that produces a half-maximal response. The low end stands for greater potency, the high end for weaker potency. One may read the IC50 as the concentration that inhibits the measured activity by half.

Where only a bound is given, the exact number is not on record here.

Chain of purified recombinant human GAC (GLS1) (O94925 other isoform, or with tags, fused parts or gaps): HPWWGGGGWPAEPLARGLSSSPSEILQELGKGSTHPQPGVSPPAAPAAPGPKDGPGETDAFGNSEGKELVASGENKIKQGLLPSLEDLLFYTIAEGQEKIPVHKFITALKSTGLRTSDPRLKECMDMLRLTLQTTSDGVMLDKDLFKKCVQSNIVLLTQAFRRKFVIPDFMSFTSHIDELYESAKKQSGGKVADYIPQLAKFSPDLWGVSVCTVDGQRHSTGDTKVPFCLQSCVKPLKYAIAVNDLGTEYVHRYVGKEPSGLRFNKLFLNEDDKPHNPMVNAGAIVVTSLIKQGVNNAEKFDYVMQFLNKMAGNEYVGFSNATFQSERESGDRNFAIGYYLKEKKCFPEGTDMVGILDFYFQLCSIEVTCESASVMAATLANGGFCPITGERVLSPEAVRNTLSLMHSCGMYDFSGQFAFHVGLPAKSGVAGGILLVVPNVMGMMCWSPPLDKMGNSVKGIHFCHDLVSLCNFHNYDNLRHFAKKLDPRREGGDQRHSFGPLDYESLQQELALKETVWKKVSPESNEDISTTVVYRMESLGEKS

The first assay concerns A549 cells. The assay can be described thus: Proliferation Assay (A549 viability, Cell Titer Fluor, 72 hours). The assay is classed as cell-based. The note with it: Homo sapiens, A549, 72 h. The procedure:
A549 cells were routinely maintained in RPMI 1640 media (Gibco catalog number 11875-093) supplemented with 10% dialyzed fetal bovine serum using a humidified incubator (37° C., 5% CO2 and ambient O2). In preparation for the viability assay, cells were inoculated into 384-well black CulturPlates (Perkin Elmer) at a density of 1000 cells/well in a volume of 40 uL. Following a 24-hour incubation at 37° C., 5% CO2 and ambient O2, cells were treated with compound (10 uL) in a final DMSO concentration of 0.5% (v/v). The microplates were then incubated for 72 hours (37° C., 5% CO2 and ambient O2). Cell Titer Fluor (Promega) was subsequently added (10 uL of 6× reagent) and mixed for 15 minutes at room temperature. The plates were then incubated for 30 minutes (37° C., 5% CO2 and ambient O2) and fluorescence was subsequently read on the Perkin Elmer Envision plate reader. IC50 values were calculated using a four-parameter logistic curve fit.
Non-limiting examples include the following compounds and pharmaceutically acceptable salts thereof. […] “ND” indicates no data.
For the molecule `O=C(Cc1ccccc1)Nc1ccc(CCCCn2cc(C(=O)NCc3ccccc3)nn2)nn1` [Example 5, N-Benzyl-1-(4-(6-(2-phenylacetamido)pyridazin-3-yl)butyl)-1H-1,2,3-triazole-4-carboxamide], the EC50 was < 100 nM. Same read-out and setting: for `O=C(NCc1ccccc1)c1cn(CCCCc2nnc(C(=O)NCc3cccc(OC(F)(F)F)c3)s2)nn1` [Example 39, 5-{4-[4-(benzylcarbamoyl)-1H-1,2,3-triazol-1-yl]butyl}-N-{[3-(trifluoromethoxy)phenyl]methyl}-1,3,4-thiadiazole-2-carboxamide] the value was 100 to 500 nM; for `CC(C)NC(=O)c1nnc(CCCCn2cc(C(=O)NCc3cccc(OC(F)(F)F)c3)nn2)s1` [Example 43, N-(propan-2-yl)-5-{4-[4-({[3-(trifluoromethoxy)phenyl]methyl}carbamoyl)-1H-1,2,3-triazol-1-yl]butyl}-1,3,4-thiadiazole-2-carboxamide], 100 to 500 nM; for `CC(C)CNC(=O)c1nnc(CCCCn2cc(C(=O)NCc3cccc(OC(F)(F)F)c3)nn2)s1` [Example 44, N-(2-methylpropyl)-5-{4-[4-({[3-(trifluoromethoxy)phenyl]methyl}carbamoyl)-1H-1,2,3-triazol-1-yl]butyl}-1,3,4-thiadiazole-2-carboxamide], 100 to 500 nM.

In the case of `O=C(NCc1cc(C2CC2)ccn1)c1cn(CCC(F)Cn2cc(C(=O)NCc3cccc(C4CC4)c3)nn2)nn1` (stereo not drawn) [Example 134, 1-[4-(4-{[(3-cyclopropylphenyl)methyl]carbamoyl}-1H-1,2,3-triazol-1-yl)-3-fluorobutyl]-N-[(4-cyclopropylpyridin-2-yl)methyl]-1H-1,2,3-triazole-4-carboxamide], the 50% effective concentration (EC50) is < 100 nM. Same read-out and setting: for `CNC(=O)c1cn(CCCCc2ccc(NC(=O)Cc3cccc(OC(F)(F)F)c3)nn2)nn1` [Example 157, N-methyl-1-(4-(6-(2-(3-(trifluoromethoxy)phenyl)acetamido)pyridazin-3-yl)butyl)-1H-1,2,3-triazole-4-carboxamide] the value was 100 to 500 nM.

For the molecule `CNC(=O)c1cn(CCCCc2ccc(NC(=O)Cc3ccccn3)nn2)nn1` [Example 167, N-methyl-1-(4-{6-[2-(pyridin-2-yl)acetamido]pyridazin-3-yl}butyl)-1H-1,2,3-triazole-4-carboxamide], the EC50 is 100 to 500 nM.

Regarding `O=C(Cc1ccccn1)Nc1ccc(CCCCn2cc(C(=O)NCc3cccc(OC(F)(F)F)c3)nn2)nn1` [Example 169, 1-(4-{6-[2-(pyridin-2-yl)acetamido]pyridazin-3-yl}butyl)-N-{[3-(trifluoromethoxy)phenyl]methyl}-1H-1,2,3-triazole-4-carboxamide], the EC50 was < 100 nM. Same read-out and setting: for `CNC(=O)c1cn(CCCCc2ccc(NC(=O)Cc3cc(C4CC4)ccn3)nn2)nn1` [Example 190, 1-(4-{6-[2-(4-cyclopropylpyridin-2-yl)acetamido]pyridazin-3-yl}butyl)-N-methyl-1H-1,2,3-triazole-4-carboxamide] the value was 100 to 500 nM; for `CNC(=O)c1cn(CCCCc2ccc(NC(=O)Cc3cc(Cl)ccn3)nn2)nn1` [Example 191, 1-(4-{6-[2-(4-chloropyridin-2-yl)acetamido]pyridazin-3-yl}butyl)-N-methyl-1H-1,2,3-triazole-4-carboxamide], 100 to 500 nM. The same measure, in the same setting: under `CNC(=O)c1cn(CCCCc2ccc(NC(=O)Cc3cc(-c4cccc(OC(F)(F)F)c4)ccn3)nn2)nn1` [Example 192, N-methyl-1-(4-(6-(2-(4-(3-(trifluoromethoxy)phenyl)pyridin-2-yl)acetamido)pyridazin-3-yl)butyl)-1H-1,2,3-triazole-4-carboxamide] stands < 100 nM; under `CNC(=O)c1cn(CCCCc2ccc(NC(=O)Cc3cc(Br)ccn3)nn2)nn1` [Example 200, 1-(4-(6-(2-(4-bromopyridin-2-yl)acetamido)pyridazin-3-yl)butyl)-N-methyl-1H-1,2,3-triazole-4-carboxamide], 100 to 500 nM.

Molecule `CNC(=O)c1cn(CCCCc2ccc(NC(=O)Cc3cncc(OC4CC(F)(F)C4)c3)nn2)nn1` [Example 202, 1-(4-(6-(2-(5-(3,3-difluorocyclobutoxy)pyridin-3-yl)acetamido)pyridazin-3-yl)butyl)-N-methyl-1H-1,2,3-triazole-4-carboxamide] returned an EC50 of 100 to 500 nM. Turning to `O=C(Cc1ccccn1)Nc1ccc(CCCCn2cc(C(=O)NCc3cc(C(F)(F)F)ccn3)nn2)nn1` [Example 203, 1-(4-(6-(2-(pyridin-2-yl)acetamido)pyridazin-3-yl)butyl)-N-((4-(trifluoromethyl)pyridin-2-yl)methyl)-1H-1,2,3-triazole-4-carboxamide], the concentration giving a half-maximal response (EC50) is < 100 nM. Take `CNC(=O)c1cn(CCCCc2ccc(NC(=O)Cc3cc(C(F)(F)F)ccn3)nn2)nn1` [Example 210, N-methyl-1-(4-(6-(2-(4-(trifluoromethyl)pyridin-2-yl)acetamido)pyridazin-3-yl)butyl)-1H-1,2,3-triazole-4-carboxamide]: the half-maximal effective concentration (EC50) is 100 to 500 nM. On the same count and under the same terms, for `COc1cncc(CNC(=O)c2cn(CC(F)CCc3nnc(NC(=O)Cc4cccc(OC(F)(F)F)c4)s3)nn2)c1` (stereo not drawn) [Example 222, 1-(2-fluoro-4-(5-(2-(3-(trifluoromethoxy)phenyl)acetamido)-1,3,4-thiadiazol-2-yl)butyl)-N-((5-methoxypyridin-3-yl)methyl)-1H-1,2,3-triazole-4-carboxamide] the value was < 100 nM.

Consider `CNC(=O)c1cn(CCCCc2ccc(NC(=O)Cc3cc(OCC(F)(F)F)ccn3)nn2)nn1` [Example 225, N-methyl-1-(4-(6-(2-(4-(2,2,2-trifluoroethoxy)pyridin-2-yl)acetamido)pyridazin-3-yl)butyl)-1H-1,2,3-triazole-4-carboxamide], for which the concentration giving a half-maximal response (EC50) fell in the range of 100 to 500 nM. Still for that read-out and setting: for `O=C(Cc1cncc(OC2CC(F)(F)C2)c1)Nc1ccc(CCCCn2cc(C(=O)NCc3cc(C(F)(F)F)ccn3)nn2)nn1` [Example 230, 1-(4-(6-(2-(5-(3,3-difluorocyclobutoxy)pyridin-3-yl)acetamido)pyridazin-3-yl)butyl)-N-((4-(trifluoromethyl)pyridin-2-yl)methyl)-1H-1,2,3-triazole-4-carboxamide] the value was < 100 nM; for `O=C(Cc1cncc(OC2CC(F)(F)C2)c1)Nc1ccc(CCCCn2cc(C(=O)NCc3ccccn3)nn2)nn1` [Example 231, 1-(4-(6-(2-(5-(3,3-difluorocyclobutoxy)pyridin-3-yl)acetamido)pyridazin-3-yl)butyl)-N-(pyridin-2-ylmethyl)-1H-1,2,3-triazole-4-carboxamide], < 100 nM.

Another assay concerns the target purified recombinant human GAC (GLS1) (Homo sapiens (Human), UniProt O94925). The assay can be described thus: GLS1 Enzymatic Activity Assay (dual-coupled enzymatic assay, resorufin/Amplex UltraRed readout).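 Note: glutamate from GAC coupled via glutamate oxidase and peroxidase to resorufin, read as fluorescence (ex 530, em 590 nm) kinetically or at 20 min, four-parameter logistic IC50 fit.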 The assay is classed as biochemical.
Settings: not given
As for `O=C(Cc1ccccn1)Nc1cn(CC(F)CCn2cc(C(=O)NCc3ncccc3F)nn2)nn1` (stereo not drawn) [Example 365, 1-(3-fluoro-4-{4-[2-(pyridin-2-yl)acetamido]-1H-1,2,3-triazol-1-yl}butyl)-N-[(3-fluoropyridin-2-yl)methyl]-1H-1,2,3-triazole-4-carboxamide], the IC50 was in the range of 500 to 5000 nM.

Consider `Cc1ccc(CNC(=O)c2cn(CCC(F)Cn3cc(NC(=O)CN4CC(F)C4)nn3)nn2)cn1` (stereo not drawn) [Example 374, 1-(3-fluoro-4-{4-[2-(3-fluoroazetidin-1-yl)acetamido]-1H-1,2,3-triazol-1-yl}butyl)-N-[(6-methylpyridin-3-yl)methyl]-1H-1,2,3-triazole-4-carboxamide], for which the IC50 fell in the range of 100 to 500 nM.
